Source: PMC11187126, “Structure and dynamics of the pyroglutamylated RF-amide peptide QRFP receptor GPR103” (Nature Communications, 2024)
Like-named read-outs stand apart in the source and are kept apart here. No end group written: not given here.

Target: T1, GPR103 F25N-termA (Homo sapiens, UniProt Q96P65, F25A)
T1 construct: we used human full-length QRFPR-encoding plasmids; expressed in transfected cells; host or cells: HEK293 cells, pCAGGS vector
T1 sequence (Q96P65 1-431 F25A): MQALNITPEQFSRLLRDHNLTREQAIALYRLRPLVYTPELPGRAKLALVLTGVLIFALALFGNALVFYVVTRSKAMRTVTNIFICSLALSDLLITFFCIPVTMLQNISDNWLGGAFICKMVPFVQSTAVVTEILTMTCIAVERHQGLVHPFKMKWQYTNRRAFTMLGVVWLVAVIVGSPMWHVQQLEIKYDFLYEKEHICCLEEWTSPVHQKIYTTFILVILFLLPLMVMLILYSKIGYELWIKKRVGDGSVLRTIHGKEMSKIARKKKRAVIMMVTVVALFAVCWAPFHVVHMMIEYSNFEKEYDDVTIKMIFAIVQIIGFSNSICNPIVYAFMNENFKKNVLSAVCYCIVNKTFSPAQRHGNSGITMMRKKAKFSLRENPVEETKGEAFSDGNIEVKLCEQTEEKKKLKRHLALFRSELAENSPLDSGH
Assay: TGFα shedding assay; Exp. level >WT (1:1)
Format: cell-based
Protocol: For the TGFα shedding assay and the flow cytometry analysis, we used human full-length QRFPR-encoding plasmids. Specifically, GPR103 was N-terminally modified with an HA signal sequence followed by a FLAG epitope and then a flexible linker ([…]; the FLAG epitope is underlined) and inserted into the pCAGGS vector. Plasmid encoding GPR103 mutants were generated using Quickchange Site-Directed Mutagensis kit (Agilent).
The TGFα shedding assay was performed as described previously with minor modifications. Plasmid transfection was performed in a 6-well plate with a mixture of 500 ng (per well in a 6-well plate) AP-TGFα-encoding plasmid and 200 ng GPR103-encoding plasmid. After 1-day culture, the transfected cells were harvested by trypsinization, pelleted by centrifugation at 190 × g for 5 min, and washed once with 5 mM HEPES (pH 7.4)-containing Hank’s Balanced Salt Solution (HBSS). After centrifugation, the cells were resuspended in 8 mL of the HEPES-containing HBSS. The cell suspension was seeded in a 96-well culture plate (cell plate) at a volume of 90 μL (per well hereafter) and incubated in a 37 °C incubator with 5% CO2 for 30 min. […] After spinning the cell plates at 190 × g for 2 min, 80 μL of conditioned media was transferred to an empty 96-well plate (conditioned media (CM) plate). Then, 80 μL of AP reaction solution (10 mM p-nitrophenylphosphate (p-NPP), 120 mM Tris-HCl (pH 9.5), 40 mM NaCl, and 10 mM MgCl2) was dispensed into the cell plates and the CM plates. Absorbance at 405 nm of the plates was measured using a microplate reader (SpectraMax 340 PC384, Molecular Devices) before and after 1-h incubation at room temperature. Ligand-induced AP-TGFα release was calculated by subtracting spontaneous AP-TGFα release signal from ligand-induced AP-TGFα release signal. The AP-TGFα release signals were fitted to a four-parameter sigmoidal concentration–response curve, using the Prism 10 software (GraphPad Prism). For each replicate experiment, the pEC50 parameter (negative logarithmic values of EC50 values) of the individual GPR103 mutants were normalized to that of the wild-type GPR103 performed in parallel, and resulting ∆pEC50 values were used to denote ligand response activity of the mutants. […]
Exp. le vel: WT (1:5 0)Exp. le vel: WT (1:5 0)Exp. le vel: WT (1:5 0)Exp. le vel: WT (1:2 0)Exp. le vel: WT (1:2 0)Exp. le vel: WT (1:1 0) […]
L1 4N - t e r mA F2 5N - t e r mA I 2 6N - t e r mA Y 2 9N - t e r mA C 9 82 .5 7A T10 22 .6 1A Exp . l eve l: WT (1 :5)Exp . l evel : >WT (1 :1)Exp. le vel: WT (1:2 0)Exp. le vel: WT (1:2 0)Exp. le vel: WT (1:5 0)Exp . l eve l: WT (1 :1) […]
Exp. le vel: WT (1:1 0)Exp. le vel: WT (1:2 0) C 1 1 83 .2 5AExp. le vel: WT (1:5 0)Exp. le vel: WT (1:5 0)Exp. le vel: WT (1:2 0)Exp . l eve l: WT (1 :5) […]
Exp. le vel: WT (1:5 0)Exp. le vel: WT (1:1 0)Exp. le vel: WT (1:5 0) E203ECL2AExp . l evel : >WT (1 :1)Exp. le vel: WT (1:5 0)Exp. le vel: WT (1:5 0) […]
Exp . l eve l: WT (1 :1) F28Exp. le vel: WT (1:5 0) C 2 8 56 .4 7AExp. le vel: WT (1:2 0) WExp. le vel: WT (1:2 0) F28Exp. le vel: WT (1:5 0)Exp . l evel : >WT (1 :1) […]
Exp. le vel: WT (1:5 0)Exp. le vel: WT (1:5 0) C 3 2 77 .4 8AExp . l eve l: WT (1 :5)Exp . l evel : >WT (1 :1)Exp . l evel : >WT (1 :1) […]
Suppl eme nt ary Figure 1 | Mutational analysis of GPR103. […]
mutants. Data are presented as mean values ± SEM, normally n=3-5; dots), each performed in triplicate. b-d Cell-surface expression (b) and QRFP26-in-duced activation of GPR103 (c, d) were analyzed by the flow cytometry and the TGFα shedding assay, respectively. From the concentration–response curves (a), Emax (c) and ΔpEC50 (d) values relative to the wild type were calculated. Colors in the mutant bars indicate an expression level matching to that of titrated wild type. Statistical analyses were performed using the ordinary one-way ANOVA followed by Dunnett tests with the expression-matched […]

Substance TSGPLGNLAEELNGYSRKKGGFSFRF-NH2 [QRFP26] has an Emax (Exp. #1) of 108.31 % WT, an Emax (Exp. #2) of 103.77 % WT and an Emax (Exp. #3) of 108.41 % WT. For the same substance, the Emax (mean, read-out: Emax) was 107%, the EC50 (n = 3) was 79.4 nM and the Emax (n = 3, read-out: Emax) was 110 ± 1.2%.
